Measured values reported in patent US10023577B2, “Crystalline form of JAK kinase inhibitor bisulfate and a preparation method thereof” (Jiangsu Hengrui Medicine Co., Ltd., priority 2014, dated 2018).
“Also recorded” adds a separate entry of the source.

What was measured:
[1] = Stability of samples spread flat in the air under lighting, heating and high humidity, purity by HPLC; assay type: physicochemical
Description: Crystal form II prepared in Example 1 and the amorphous sample prepared in Example 2 were spread flat in the air to test their stability in conditions of lighting (4500 Lux), heating (40° C., 60′C.), and high humidity (RH 75%, RH 90%).

[2] = Special stability study: grinding, heating and pressing of the crystal form; assay type: physicochemical
Description: Crystal form II of the compound of formula (I) prepared according to the method of Example 1 was ground, heated and pressed.

purity as detected by HPLC ([1]; 40° C., Day 0) [%] | purity as detected by HPLC ([1]; 40° C., Day 5) [%] | purity as detected by HPLC ([1]; 40° C., Day 10) [%] | purity as detected by HPLC ([1]; 60° C., Day 0) [%] | purity as detected by HPLC ([1]; 60° C., Day 5) [%] | purity as detected by HPLC ([1]; 60° C., Day 10) [%] | purity as detected by HPLC ([1]; Lighting (4500 Lux), Day 0) [%] | purity as detected by HPLC ([1]; Lighting (4500 Lux), Day 5) [%] | purity as detected by HPLC ([1]; Lighting (4500 Lux), Day 10) [%] | purity as detected by HPLC ([1]; RH 75%, Day 0) [%] | purity as detected by HPLC ([1]; RH 75%, Day 5) [%] | purity as detected by HPLC ([1]; RH 75%, Day 10) [%] | purity as detected by HPLC ([1]; RH 90%, Day 0) [%] | purity as detected by HPLC ([1]; RH 90%, Day 5) [%] | purity as detected by HPLC ([1]; RH 90%, Day 10) [%] | effect of high humidity on stability [1] | SMILES | other results
98.33 | 97.65 | 96.61 | 98.33 | 94.53 | 92.12 | 98.33 | 98.04 | 97.51 | 98.33 | 98.32 | 98.16 | 98.33 | 99.14 | 99.12 | does not have much effect | COc1nsc(NC(=O)N2C[C@H]3C[C@H](N(C)c4ncnc5[nH]ccc45)C[C@H]3C2)n1 [Amorphous Form, (3aR,5s,6aS)—N-(3-methoxyl-1,2,4-thiadiazole-5-yl)-5-(methyl(7H-pyrrolo[2,3-d]pyrimidine-4-yl)amino)hexahydrocyclopenta[c]pyrrole-2(1H)-formamide bisulfate] | 
99.30 | 99.30 | 99.28 | 99.30 | 99.20 | 99.15 | 99.30 | 99.29 | 99.30 | 99.30 | 99.31 | 99.28 | 99.30 | 99.31 | 99.31 | does not have much effect | COc1nsc(NC(=O)N2C[C@H]3C[C@H](N(C)c4ncnc5[nH]ccc45)C[C@H]3C2)n1 [Crystal form II, (3aR,5s,6aS)—N-(3-methoxyl-1,2,4-thiadiazole-5-yl)-5-(methyl(7H-pyrrolo[2,3-d]pyrimidine-4-yl)amino)hexahydrocyclopenta[c]pyrrole-2(1H)-formamide bisulfate] | Crystal form after treatment ([2]; Grinding treatment for 10 minutes in a mortar under nitrogen atmosphere): form II; Crystal form after treatment ([2]; Heating treatment at 80° C. for 3 hours): form II; Crystal form after treatment ([2]; Pressing treatment, pressed to a slice): form II; stability of the crystal form ([2]; ground, heated and pressed): good stability; also recorded: stable; stability compared with the amorphous sample ([1]; conditions of high temperature and high humidity): significantly better than that of the amorphous sample; stability compared with the amorphous sample ([1]; conditions of lighting and high temperature): significantly better than that of the amorphous sample
